Measured values as given in paper PMC7411887, “New Paracyclophanylthiazoles with Anti-Leukemia Activity: Design, Synthesis, Molecular Docking, and Mechanistic Studies” (Molecules, 2020).
Where “and” joins values, the source holds several entries; their conditions need not be identical. Equal values may be shown once.

Tests used:
BAX = BAX assay on leukemia SR cell line; format: cell-based, human; details: for BAX Concentration: ± SD
Procedure: 19. Read the concentrations for unknown samples and controls from the standard curve.
All standards, controls and samples should be run in duplicate. […]
desiccant back into the pouch and seal the ziploc. Store unused wells at 4 °C.
4. Pipet 100 μL of the Samples into the appropriate wells.
7. Empty the contents of the wells and wash by adding 400 μL of wash solution to every well.
8. Repeat the wash 4 more times for a total of 5 washes.
9. After the final wash, empty or aspirate the wells and firmly tap the plate on a lint free paper towel to remove any remaining wash buffer.
10. Pipet 100 μL of yellow Antibody into each well, except the Blank.
12. Empty the contents of the wells and wash by adding 400 μL of wash solution to every
13. Repeat the wash 4 more times for a total of 5 washes.
14. After the final wash, empty or aspirate the wells and firmly tap the plate on a lint free
17. Empty the contents of the wells and wash by adding 400 μL of wash solution to every
18. Repeat the wash 4 more times for a total of 5 washes.
19. After the final wash, empty or aspirate the wells and firmly tap the plate on a lint free
20. Pipet 100 μL of Substrate Solution into each well.
21. Incubate for 30 minutes at room temperature on a plate shaker at ~500 rpm.
1. Mix all reagents thoroughly without foaming before use.
3. Take caution not to scratch the surface of the microwells.
5. Use the microwell strips immediately after washing or place upside down on a wet absorbent paper for not longer than 15 minutes.
Prepare standard (1:2 dilution) in duplicate ranging from 32

β-tubulin = target: T1, β-tubulin (Homo sapiens, UniProt P07437); test: Tubulin polymerization inhibition (ELISA for TUBb, SR cell line); format: cell-based; details: IC50 ± SEM
T1 construct: endogenous in cells; host or cells: leukemia SR cell line
T1 sequence (P07437 whole entry): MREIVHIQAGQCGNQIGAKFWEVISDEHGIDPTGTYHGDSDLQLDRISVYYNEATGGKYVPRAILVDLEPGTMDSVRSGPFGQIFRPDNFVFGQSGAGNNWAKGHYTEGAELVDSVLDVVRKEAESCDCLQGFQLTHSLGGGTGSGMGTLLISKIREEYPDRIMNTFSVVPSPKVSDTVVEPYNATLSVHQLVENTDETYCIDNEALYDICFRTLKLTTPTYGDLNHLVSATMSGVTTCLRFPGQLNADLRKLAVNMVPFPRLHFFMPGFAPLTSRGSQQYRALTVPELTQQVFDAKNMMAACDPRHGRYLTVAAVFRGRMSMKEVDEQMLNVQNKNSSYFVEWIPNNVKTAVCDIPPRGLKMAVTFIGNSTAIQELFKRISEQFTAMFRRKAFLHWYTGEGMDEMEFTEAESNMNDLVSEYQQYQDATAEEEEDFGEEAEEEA
T1 sequence (P68363 whole entry partner): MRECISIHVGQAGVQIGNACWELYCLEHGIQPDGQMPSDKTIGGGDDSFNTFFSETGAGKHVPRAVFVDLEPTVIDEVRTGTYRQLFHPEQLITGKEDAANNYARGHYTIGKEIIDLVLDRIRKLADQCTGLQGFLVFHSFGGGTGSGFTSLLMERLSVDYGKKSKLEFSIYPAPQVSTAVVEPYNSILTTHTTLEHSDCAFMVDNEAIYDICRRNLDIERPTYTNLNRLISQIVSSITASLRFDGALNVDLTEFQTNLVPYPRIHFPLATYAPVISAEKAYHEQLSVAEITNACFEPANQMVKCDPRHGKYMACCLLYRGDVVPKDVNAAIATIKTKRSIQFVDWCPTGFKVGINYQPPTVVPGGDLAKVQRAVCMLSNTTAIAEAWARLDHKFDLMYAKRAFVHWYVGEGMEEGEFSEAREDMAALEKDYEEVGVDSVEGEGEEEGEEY
Procedure: The in vitro kinetics of microtubule assembly was measured using an ELISA kit for TUBb (Cloud-Clone. Corp.) on the leukemia SR cell line. The compounds tested were 3a–f and colchicine. Briefly, growing cells from the SR cell line were trypsinized, counted, and seeded at the appropriate densities into 96-well microtiter plates.
4. Tubulin polymerization inhibitory activity […]
bind the biotin labeled antibody. […]
spectrophotometrically at a wavelength of 450 nm ± 10 nm. The decrease of color intensity was measured as a sign for tubulin inhibition. The results were calculated as the concentration of TUBb available for antibody reaction, and the percent inhibition of TUBb was calculated for each sample as a percent of control. In vitro kinetics of microtubule assembly was measured using ELISA kit for TUBb (Cloud-Clone. Corp.) on SR cell line. Briefly, growing cells from Leukemia SR cell lines were trypsinized, counted and seeded at the appropriate densities into 96-well microtiter plates. Cells then were incubated in a humidified atmosphere at oC for 24 h. The standards, the tested compounds, and the control colchicine were diluted to designated concentrations. On the 96-well microtiter plates standard or sample was added to each well in […] and incubated at oC for 2 h. The solution was aspirated, and […] of prepared detection reagent A was added to each well. Incubation was done at oC for 2 h. After washing […] of prepared Detection Reagent B was added and incubation was continued at oC for 30 min. Five washings were done, then […] of 3,30,5,50-tetramethylbenzidine (TMB) substrate solution was added and incubated at oC for 15-25 min. Stop solution was added in […].
Optical density (O.D.) was measured at 450 nm using micro-plate reader (Spectromax Plus 96 well plate spectrophotometer). […]
the treated cells compared to that of the untreated control cells.
5. Multidrug resistance Assay
Before adding to wells, equilibrate the SABC working solution and TMB substrate for at least 30 […]
When diluting samples and reagents, they must be mixed completely and evenly. It is recommended plotting a standard curve for each test.

NCI-H322M = test: NCI single-dose screen (SRB); format: cell-based; details: Homo sapiens; Non-Small-Cell Lung Cancer NCI-H322M; 10^−5 M; read-out: Growth inhibition percentage
Method in brief: (§1)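 In this one-dose NCI protocol, each compound was tested at 10^−5 M over a 48 h incubation. Protein content was quantified by SRB binding, and results reported as percent growth versus untreated cells.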

HT29 = test: NCI single-dose screen (SRB); format: cell-based; details: Homo sapiens, HT-29; Colon Cancer HT29; 10^−5 M; read-out: Growth inhibition percentage
Method in brief: as §1

HOP-62 = test: NCI single-dose screen (SRB); format: cell-based; details: Homo sapiens; Non-Small-Cell Lung Cancer HOP-62; 10^−5 M; read-out: Growth inhibition percentage
Method in brief: as §1

HS 578T = test: NCI single-dose screen (SRB); format: cell-based; details: Homo sapiens; Breast Cancer HS 578T; 10^−5 M; read-out: Growth inhibition percentage
Method in brief: as §1

SK-MEL-28 = test: NCI single-dose screen (SRB); format: cell-based; details: Homo sapiens; Melanoma SK-MEL-28; 10^−5 M; read-out: Growth inhibition percentage
Method in brief: as §1

| Structure (SMILES) | BAX Concentration (BAX) [pg/mL] | IC50 (β-tubulin) | melting point | inhibition at 10 µM (NCI-H322M) [%] | inhibition at 10 µM (HT29) [%] | inhibition at 10 µM (HOP-62) [%] | inhibition at 10 µM (HS 578T) [%] | inhibition at 10 µM (SK-MEL-28) [%] | BAX Fold Change (BAX; relative to control) [fold] |
| --- | --- | --- | --- | --- | --- | --- | --- | --- | --- |
| COc1cc2c(c(OC)c1OC)-c1ccc(OC)c(=O)cc1[C@@H](NC(C)=O)CC2 [Colchicine, colchicine, reference compound] | 341.8 ± 4.310 |  |  |  |  |  |  |  |  |
| COC(=O)C=C1SC(=NNC(=O)c2cc3ccc2CCc2ccc(cc2)CC3)N(Cc2ccccc2)C1=O [Compound 3b] |  | 8.38 ± 0.18 µM | 175 to 177 °C | 6.7 | 87.6 | 22.8 | 12.6 | 0 |  |
| COC(=O)C=C1SC(=Nc2cccnc2)N(NC(=O)c2cc3ccc2CCc2ccc(cc2)CC3)C1=O [Compound 3c, Methyl (E)-2-((E)-3-[2.2]paracyclophanyl)amido-4-oxo-2-(pyridin-3-ylimino)-thiazolidin-5-ylidene)acetate] |  | 8.38 µM and 8.28 µM | 262 to 264 °C (dec.) | 1.72 | 7.71 | 4 | 0 | 0.86 |  |
| COC(=O)C=C1SC(=NNC(=O)c2cc3ccc2CCc2ccc(cc2)CC3)N(c2ccccc2)C1=O [Compound 3a] | 359 ± 3.830 | 4.97 ± 0.11 µM |  | 31.5 | 113 | 97 | 22.1 | 17.5 | ~7.98 |
| C=CCN1C(=O)C(=CC(=O)OC)SC1=NNC(=O)c1cc2ccc1CCc1ccc(cc1)CC2 [Compound 3d] |  | 14.8 ± 0.32 µM | 241 to 243 °C | 2.94 | 54 | 0 | 6.41 | 0 |  |
| CCN1C(=O)C(=CC(=O)OC)SC1=NNC(=O)c1cc2ccc1CCc1ccc(cc1)CC2 [Compound 3e] |  | 6.61 ± 0.14 µM | 220 to 222 °C | 7.75 | 54.8 | 0 | 1.03 | 0 |  |
| COC(=O)/C=C1/S/C(=N/NC(=O)c2cc3ccc2CCc2ccc(cc2)CC3)N(C2CC2)C1=O [Compound 3f] |  |  | 180 to 182 °C | 4.43 | 24 | 0 | 5.01 | 10.3 |  |
